Molecular target: T1, Polyunsaturated fatty acid lipoxygenase ALOX15 (Homo sapiens, UniProt P16050)
T1 sequence (P16050 whole entry): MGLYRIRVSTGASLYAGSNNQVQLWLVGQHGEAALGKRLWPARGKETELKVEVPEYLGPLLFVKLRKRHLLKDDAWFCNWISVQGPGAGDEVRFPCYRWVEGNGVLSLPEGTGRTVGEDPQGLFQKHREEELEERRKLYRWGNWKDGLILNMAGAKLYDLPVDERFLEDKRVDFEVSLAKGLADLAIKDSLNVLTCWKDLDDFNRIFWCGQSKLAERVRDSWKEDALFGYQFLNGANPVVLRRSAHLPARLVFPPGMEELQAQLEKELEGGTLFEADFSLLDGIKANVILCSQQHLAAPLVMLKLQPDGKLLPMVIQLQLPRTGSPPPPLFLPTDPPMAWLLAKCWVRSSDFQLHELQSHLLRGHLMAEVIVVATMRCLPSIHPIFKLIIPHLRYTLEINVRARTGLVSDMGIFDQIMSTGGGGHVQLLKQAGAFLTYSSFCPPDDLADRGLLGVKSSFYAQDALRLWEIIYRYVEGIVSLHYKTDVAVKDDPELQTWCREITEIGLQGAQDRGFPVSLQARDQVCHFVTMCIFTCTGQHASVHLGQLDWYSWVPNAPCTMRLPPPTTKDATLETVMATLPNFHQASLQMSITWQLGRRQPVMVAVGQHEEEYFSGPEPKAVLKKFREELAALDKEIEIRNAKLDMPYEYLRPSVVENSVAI
Test: Competitive inhibition of N-terminal His6-tagged human 12/15-LOX using arachidonic acid as substrate by Dixon plot analysis

Cc1ccc(O)c(-c2cc(-c3ccccc3C)[nH]n2)c1 [4-methyl-2-[5-(2-methylphenyl)-1H-pyrazol-3-yl]phenol]
Ki: 1000 nM

Source: BindingDB's records for doi:10.1016/j.bmc.2016.01.042 (University of California, 2016)
